Results from ChEMBL document CHEMBL1201862, “PubChem BioAssay data set” (2004).
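48-hour exposure; five concentrations; linearly interpolated endpoints. GI50 = concentration required for 50% inhibition of growth.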 Activity calls are given as the source filed them. Rule as the data show it: active = GI50 up to about 1.1 µM and inactive = higher.

How the values were obtained:
Test in all cases: growth of human tumour cells (NCI), 48 h
SNB-19 = system: SNB-19
A549 = system: A549
OVCAR-5 = system: OVCAR-5
SR = system: SR
MOLT-4 = system: MOLT-4
HCT-15 = system: HCT-15
KM12 = system: KM12
OVCAR-3 = system: OVCAR-3
SNB-75 = system: SNB-75
Malme-3M = system: Malme-3M
NCI-H522 = system: NCI-H522
UACC-62 = system: UACC-62
786-0 = system: 786-0
TK-10 = system: TK-10
HOP-92 = system: HOP-92
CCRF-CEM = system: CCRF-CEM
ACHN = system: ACHN
MDA-MB-231 = system: MDA-MB-231
Hs-578T = system: Hs-578T

SMILES | GI50 (SNB-19) | GI50 (A549) | GI50 (OVCAR-5) | GI50 (SR) | GI50 (MOLT-4) | GI50 (HCT-15) | GI50 (KM12) | GI50 (OVCAR-3) | GI50 (SNB-75) | GI50 (Malme-3M) | GI50 (NCI-H522) | GI50 (UACC-62) | GI50 (786-0) | GI50 (TK-10) | GI50 (HOP-92) | GI50 (CCRF-CEM) | GI50 (ACHN) | GI50 (MDA-MB-231) | GI50 (Hs-578T)
CCCNc1ncnc2c1cnn2C | > 100 µM (inactive) | > 100 µM (inactive) | > 100 µM (inactive) | > 100 µM (inactive) | > 100 µM (inactive) | > 100 µM | > 100 µM (inactive) | > 100 µM (inactive) | 51.3 µM (inactive) | > 100 µM (inactive) | > 100 µM (inactive) | > 100 µM (inactive) | > 100 µM (inactive) | > 100 µM (inactive) | > 100 µM (inactive) | > 100 µM (inactive) | > 100 µM (inactive) |  | 
Cn1cnnc1Sc1c([N+](=O)[O-])nc(-c2ccc([N+](=O)[O-])cc2)n1C | > 100 µM (inactive) | > 100 µM (inactive) | 27.7 µM (inactive) | 16.2 µM (inactive) | 14.6 µM (inactive) |  | 20.5 µM (inactive) | 17 µM (inactive) | 31.3 µM (inactive) | 14.9 µM (inactive) | 6.1 µM (inactive) | 16.5 µM (inactive) | 17.7 µM (inactive) | 18.7 µM (inactive) | 19.4 µM (inactive) | 10.3 µM (inactive) | 18.6 µM (inactive) |  | 
COc1ccc(OC)c(CNc2ccc(O)c(C(=O)NCCc3ccc(F)cc3)c2)c1 | 15.1 µM (inactive) | 20.7 µM (inactive) | 22.4 µM (inactive) | 3.44 µM (inactive) | 4.05 µM (inactive) | 12.6 µM | 9.71 µM (inactive) | 7.57 µM (inactive) |  |  | 2.83 µM (inactive) | 8.89 µM (inactive) | 23.8 µM (inactive) | 28.9 µM (inactive) |  | 7.23 µM (inactive) | 24 µM (inactive) | 7 µM (inactive) | 22.7 µM (inactive)
CC(=O)C(CN(C)Cc1ccccc1)C(c1ccccc1)c1c(O)c2ccccc2oc1=O (centres undefined) | 11 µM (inactive) | > 100 µM (inactive) | > 100 µM (inactive) | > 100 µM (inactive) | > 100 µM (inactive) | > 100 µM | > 100 µM (inactive) |  | > 100 µM (inactive) | > 100 µM (inactive) | 80.4 µM (inactive) | > 100 µM (inactive) | > 100 µM (inactive) | > 100 µM (inactive) | 31.9 µM (inactive) | > 100 µM (inactive) | > 100 µM (inactive) |  | 
N/C(=N\c1ccc(Cl)cc1)c1ccccc1N | > 100 µM (inactive) | > 100 µM (inactive) | > 100 µM (inactive) | > 100 µM (inactive) | > 100 µM (inactive) | > 100 µM | > 100 µM (inactive) | > 100 µM (inactive) | > 100 µM (inactive) | > 100 µM (inactive) | > 100 µM (inactive) | > 100 µM (inactive) | > 100 µM (inactive) | > 100 µM (inactive) | 3.82 µM (inactive) | > 100 µM (inactive) | > 100 µM (inactive) | > 100 µM (inactive) | > 100 µM (inactive)
CCN(CC)[C@@H]1c2cc3c(cc2C(c2cc(OC)c(O)c(OC)c2)C2C(=O)CO[C@@H]21)OCO3 (some centres undefined) |  | > 100 µM (inactive) | > 100 µM (inactive) | > 100 µM (inactive) | > 100 µM (inactive) | > 100 µM | > 100 µM (inactive) |  | > 100 µM (inactive) | > 100 µM (inactive) | > 100 µM (inactive) | > 100 µM (inactive) | > 100 µM (inactive) | > 100 µM (inactive) | > 100 µM (inactive) | > 100 µM (inactive) | > 100 µM (inactive) |  | 
CC(=O)OC1CC2C(C)(C)OC(=O)CC(OC(C)=O)[C@]2(C)C2CCC3(C)C(=CCC3[C@H]3COC(=O)C3)[C@]12C (some centres undefined) | > 100 µM (inactive) | 55.6 µM (inactive) | > 100 µM (inactive) | 24 µM (inactive) | 24.5 µM (inactive) | > 100 µM | > 100 µM (inactive) | 94 µM (inactive) | 46.6 µM (inactive) | > 100 µM (inactive) | 83.4 µM (inactive) | 97.7 µM (inactive) | > 100 µM (inactive) | > 100 µM (inactive) | 26.1 µM (inactive) | 23.5 µM (inactive) | > 100 µM (inactive) |  | 
CC1C[C@H](C)CC(C(O)CC2CC(=O)N(Cc3ccccc3)C(=O)C2)C1O (some centres undefined) | > 100 µM (inactive) | > 100 µM (inactive) | > 100 µM (inactive) | > 100 µM (inactive) | > 100 µM (inactive) |  | 48.9 µM (inactive) | > 100 µM (inactive) | > 100 µM (inactive) | > 100 µM (inactive) | > 100 µM (inactive) | > 100 µM (inactive) | > 100 µM (inactive) | > 100 µM (inactive) | > 100 µM (inactive) | > 100 µM (inactive) | > 100 µM (inactive) |  | 
C=C1CC[C@@H]2C(C)(C)CCC[C@@]2(C)[C@@H]1Cc1cc(O)ccc1O | 6.24 µM (inactive) | 5.36 µM (inactive) | 15.1 µM (inactive) | 2.42 µM (inactive) | 0.912 µM (active) | 3.09 µM | 6.18 µM (inactive) | 5.31 µM (inactive) | 1.95 µM (inactive) | 5.25 µM (inactive) | 1.84 µM (inactive) | 10.4 µM (inactive) | 3.4 µM (inactive) | 3.17 µM (inactive) | 2.79 µM (inactive) | 0.558 µM (active) | 3.56 µM (inactive) |  | 
